Data as given in paper PMC7067653 (Bioorganic & medicinal chemistry letters, 2020).

How the values were obtained:
[1] = biological target: human dopamine D1 receptor (Homo sapiens, UniProt P21728); test: Binding affinity at human dopamine D1 receptor; conditions: amide versus aniline precursor
[2] = biological target: T1, human serotonin 5-HT1A receptor (Homo sapiens, UniProt P08908); test: Binding affinity at human serotonin 5-HT1A receptor; conditions: triplicate; na = not active (< 50% inhibition in a primary assay)
T1 sequence (P08908 1-422): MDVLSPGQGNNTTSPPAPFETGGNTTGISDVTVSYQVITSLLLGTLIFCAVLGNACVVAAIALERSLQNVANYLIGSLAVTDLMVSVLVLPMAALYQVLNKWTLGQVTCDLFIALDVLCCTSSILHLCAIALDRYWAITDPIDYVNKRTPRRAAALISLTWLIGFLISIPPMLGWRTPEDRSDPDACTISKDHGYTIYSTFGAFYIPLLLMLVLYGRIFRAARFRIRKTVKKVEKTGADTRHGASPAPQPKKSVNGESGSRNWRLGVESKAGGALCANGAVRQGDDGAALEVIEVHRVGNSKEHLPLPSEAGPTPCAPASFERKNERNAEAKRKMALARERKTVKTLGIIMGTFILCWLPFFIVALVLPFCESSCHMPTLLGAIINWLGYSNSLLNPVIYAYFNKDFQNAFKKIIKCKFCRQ

[3] = biological target: human dopamine D2 receptor (Homo sapiens, UniProt P14416); test: Binding affinity at human dopamine D2 receptor; conditions: triplicate; na = not active (< 50% inhibition in a primary assay)
human dopamine D2 receptor, sequence (P14416 whole entry): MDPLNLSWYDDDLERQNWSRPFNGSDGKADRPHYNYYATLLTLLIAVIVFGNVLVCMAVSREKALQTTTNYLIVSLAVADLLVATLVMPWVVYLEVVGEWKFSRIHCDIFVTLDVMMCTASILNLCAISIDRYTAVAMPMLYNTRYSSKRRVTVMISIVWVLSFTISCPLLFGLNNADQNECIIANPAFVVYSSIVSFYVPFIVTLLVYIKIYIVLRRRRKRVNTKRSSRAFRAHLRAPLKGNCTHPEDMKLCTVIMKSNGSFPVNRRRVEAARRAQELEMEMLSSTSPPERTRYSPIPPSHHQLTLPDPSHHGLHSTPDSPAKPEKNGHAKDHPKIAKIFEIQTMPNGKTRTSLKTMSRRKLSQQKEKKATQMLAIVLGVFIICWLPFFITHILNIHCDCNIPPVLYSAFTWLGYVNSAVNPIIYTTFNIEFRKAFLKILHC

human dopamine D1 receptor, sequence (P21728 whole entry): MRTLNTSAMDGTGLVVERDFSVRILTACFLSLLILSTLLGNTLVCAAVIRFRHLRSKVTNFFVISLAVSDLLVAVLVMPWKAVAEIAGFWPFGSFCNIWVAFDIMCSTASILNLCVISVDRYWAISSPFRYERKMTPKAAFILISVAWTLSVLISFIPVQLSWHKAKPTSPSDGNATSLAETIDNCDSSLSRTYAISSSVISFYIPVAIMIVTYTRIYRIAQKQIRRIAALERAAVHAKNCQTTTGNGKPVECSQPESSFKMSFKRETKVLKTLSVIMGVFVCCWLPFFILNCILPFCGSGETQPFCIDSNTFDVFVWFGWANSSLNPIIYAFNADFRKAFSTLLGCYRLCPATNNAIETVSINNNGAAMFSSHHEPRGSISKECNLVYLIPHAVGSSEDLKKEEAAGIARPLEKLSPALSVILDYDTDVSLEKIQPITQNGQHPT

Row | fold increase in D1 receptor affinity on N-acylation [1] | Ki D2 [3] | SMILES | Ki 5-HT1A [2]
1 | ≤ 12 fold |  | C#CCOc1c(OC)cc2c3c1-c1cc(NC(C)=O)ccc1CC3N(C)CC2 (stereo not shown) [Compound 20c] | 
2 |  |  | C=CCOc1c(OC)cc2c3c1-c1cc(N)ccc1CC3N(C)CC2 (stereo not shown) [Compound 19d] | no affinity
3 | ≤ 12 fold | no D2 receptor affinity | C=CCOc1c(OC)cc2c3c1-c1cc(NC(C)=O)ccc1CC3N(C)CC2 (stereo not shown) [Compound 20b] | 
